Results from publication PMC3973950, “Synthesis of 5-arylidine amino-1,3,4-thiadiazol-2-[(N-substituted benzyol)]sulphonamides endowed with potent antioxidants and anticancer activity induces growth inhibition in HEK293, BT474 and NCI-H226 cells” (Medicinal Chemistry Research, 2013).

Experiments:
[1] = In vitro cytotoxicity by MTT assay, HEK 293; format: cell-based, human; details: human, HEK 293 cells, read-out: % cytotoxicity (100 − % cell survival) of HEK 293 cell line
Experimental: (§1) The cancer cell line cultures of HEK 293 ([…]), BT474 (breast cancer cell line) and NCI-H226 (lung cancer) were obtained from Pasteur Institute of India, Coonoor, India, and were cultured in RPMI-1640 and 10 % heat-[…] New born calf serum with antibiotics [penicillin ([…]), streptomycin (100 μg/mL) and amphotericin B (25 μg/mL)]. The cells were maintained at 37 °C in a humidified atmosphere with 5 % CO2 and were subcultured twice a week.
(§2) The monolayer cell culture (100 μL) was trypsinized, and the cell count was adjusted to […] using medium containing 10 % new born calf serum. To each well of the 96-well microtitre plate, the diluted cell suspension (approximately 10,000 cells) (0.1 mL) was added and kept for 24 h in incubator at 37 °C in 5 % CO2 atmosphere for cell monolayer formation. After 24 h, when a partial monolayer was formed at the bottom of the well, the supernatant was flicked off, the monolayer was washed once, and different drugs, i.e. synthesized compounds (100 μL), were added to the cells in microtitre plates. The plates were then incubated at 37 °C for 3 days in 5 % CO2 atmosphere, and microscopic examination was carried out and observations recorded every 24 h. After 72 h, the sample solution in the wells was flicked off; MTT dye ([…]) was added to each well; plates were gently shaken and incubated for 4 h at 37 °C in 5 % CO2 incubator. The supernatant was removed and propanol (50 μL) was added; the plates were gently shaken to solubilize the formed formazan. The absorbance was measured using a microplate reader at a wavelength of 490 nm (Edmondson et al., [1988]; Prasad et al., [2005]; Chiruvella et al., [2008]; Chang et al., [2007]).

[2] = system: BT474 (breast cancer cell line); experiment: In vitro cytotoxicity by MTT assay, BT474; format: cell-based; details: Homo sapiens, 72 h, read-out: % cytotoxicity (100 − % cell survival) of BT474 cell line; for cytotoxicity at 0.005 µM: BT-474, 0.005 μM; for cytotoxicity at 0.015 µM: BT-474, 0.015 μM; for cytotoxicity at 0.045 µM: BT-474, 0.045 μM; for cytotoxicity at 0.13 µM: BT-474, 0.13 μM; for cytotoxicity at 0.41 µM: BT-474, 0.41 μM; for cytotoxicity at 1.23 µM: BT-474, 1.23 μM; for cytotoxicity at 3.7 µM: BT-474, 3.7 μM; for cytotoxicity at 11.11 µM: BT-474, 11.11 μM; for cytotoxicity at 33.33 µM: BT-474, 33.33 μM; for cytotoxicity at 100 µM: BT-474, 100 μM
Experimental: as §1, §2

[3] = In vitro cytotoxicity by MTT assay, NCI-H226; format: cell-based; details: human, NCI-H226 lung cancer cells, 0.015 μM, read-out: % Cytotoxicity (100 − % cell survival) of NCI-H226 cell line
Experimental: as §1, §2

[4] = system: NCI-H226 (lung cancer cell line); experiment: In vitro cytotoxicity by MTT assay, NCI-H226; format: cell-based; details: Homo sapiens, 72 h, read-out: % Cytotoxicity (100 − % cell survival) of NCI-H226 cell line; for cytotoxicity at 0.005 µM: NCI-H226, 0.005 μM; for cytotoxicity at 0.045 µM: NCI-H226, 0.045 μM; for cytotoxicity at 0.13 µM: NCI-H226, 0.13 μM; for cytotoxicity at 0.41 µM: NCI-H226, 0.41 μM; for cytotoxicity at 1.23 µM: NCI-H226, 1.23 μM; for cytotoxicity at 3.7 µM: NCI-H226, 3.7 μM; for cytotoxicity at 11.11 µM: NCI-H226, 11.11 μM; for cytotoxicity at 33.33 µM: NCI-H226, 33.33 μM; for cytotoxicity at 100 µM: NCI-H226, 100 μM
Experimental: as §1, §2

SMILES	cytotoxicity at 72 h, 0.005 µM [1]	cytotoxicity at 72 h, 0.015 µM [1]	cytotoxicity at 72 h, 0.045 µM [1]	cytotoxicity at 72 h, 0.13 µM [1]	cytotoxicity at 72 h, 0.41 µM [1]	cytotoxicity at 72 h, 1.23 µM [1]	cytotoxicity at 72 h, 3.7 µM [1]	cytotoxicity at 72 h, 11.11 µM [1]	cytotoxicity at 72 h, 33.33 µM [1]	cytotoxicity at 72 h, 100 µM [1]	cytotoxicity at 0.005 µM [2]	cytotoxicity at 0.015 µM [2]	cytotoxicity at 0.045 µM [2]	cytotoxicity at 0.13 µM [2]	cytotoxicity at 0.41 µM [2]	cytotoxicity at 1.23 µM [2]	cytotoxicity at 3.7 µM [2]	cytotoxicity at 11.11 µM [2]	cytotoxicity at 33.33 µM [2]	cytotoxicity at 100 µM [2]	further results
CC(=O)Nc1ccc(S(=O)(=O)Nc2nnc(S(=O)(=O)NC(=O)c3ccccc3O)s2)cc1 [Compound 6d]	33.3%	34.8%	35.1%	35.9%	36.7%	37.2%	38.4%	39.3%	40.7%	41.3%	26.3%	27.7%	28.9%	29.4%	30.6%	31%	32.1%	32.9%	33.3%	33.9%	cytotoxicity at 72 h, 0.015 µM [3]: 36.4%; cytotoxicity at 0.005 µM [4]: 35.5%; cytotoxicity at 0.045 µM [4]: 37%; cytotoxicity at 0.13 µM [4]: 39.1%; cytotoxicity at 0.41 µM [4]: 41.2%; cytotoxicity at 1.23 µM [4]: 42%; cytotoxicity at 3.7 µM [4]: 43.4%; cytotoxicity at 11.11 µM [4]: 45.3%; cytotoxicity at 33.33 µM [4]: 47.3%; cytotoxicity at 100 µM [4]: 49.1%
CC(=O)Nc1ccc(S(=O)(=O)Nc2nnc(S(=O)(=O)NC(=O)c3ccc(Cl)cc3)s2)cc1 [Compound 6g]	15.1%	16.5%	18%	18.3%	20.1%	20.8%	24.2%	26.1%	28.7%	32%	30.5%	32.8%	33.9%	34.1%	37.6%	38.2%	39.5%	42.4%	44.2%	46.4%	cytotoxicity at 72 h, 0.015 µM [3]: 35%; cytotoxicity at 0.005 µM [4]: 33.5%; cytotoxicity at 0.045 µM [4]: 36.8%; cytotoxicity at 0.13 µM [4]: 37.3%; cytotoxicity at 0.41 µM [4]: 39.8%; cytotoxicity at 1.23 µM [4]: 40.6%; cytotoxicity at 3.7 µM [4]: 41.3%; cytotoxicity at 11.11 µM [4]: 42.6%; cytotoxicity at 33.33 µM [4]: 43.2%; cytotoxicity at 100 µM [4]: 46%
Nc1ccc(S(=O)(=O)Nc2nnc(S(=O)(=O)NC(=O)c3ccccc3)s2)cc1 [Compound 7a]	23.7%	25.8%	26.4%	28.6%	30.2%	32.5%	32.5%	33.5%	34.1%	35.7%	34.1%	35%	36.7%	37.8%	38.2%	39.5%	40.7%	41.8%	43.7%	46.3%	cytotoxicity at 72 h, 0.015 µM [3]: 28.4%; cytotoxicity at 0.005 µM [4]: 27.4%; cytotoxicity at 0.045 µM [4]: 29.2%; cytotoxicity at 0.13 µM [4]: 29.4%; cytotoxicity at 0.41 µM [4]: 30.4%; cytotoxicity at 1.23 µM [4]: 32.2%; cytotoxicity at 3.7 µM [4]: 34.5%; cytotoxicity at 11.11 µM [4]: 35.1%; cytotoxicity at 33.33 µM [4]: 36.2%; cytotoxicity at 100 µM [4]: 36.9%
